Measured values taken from patent US10196395B2, “Crystalline form alpha of IPI-145 and preparation method thereof” (CRYSTAL PHARMATECH CO., LTD., priority 2015, dated 2019).
“Also recorded” adds a separate entry of the source.

Tests used:
[1] = Stability assessment: 1:1 mixture of Form α and anhydrous Form A stirred in tetrahydrofuran, solid tested by XRPD; assay type: physicochemical; settings: 25° C. and 50° C.
Method: Form α of the present disclosure and anhydrous Form A in CN103648499A were mixed with a mass ratio of 1:1 and stirred in tetrahydrofuran at 5° C., 25° C. and 50° C. at a rate of 500 r/min for 24 h.

[2] = Hygroscopicity assessment by dynamic vapor sorption (DVS); assay type: physicochemical; settings: 25° C.; for Weight gain under 80% RH: DVS, 10 mg
Method: Dynamic Vapor Sorption (DVS) was measured via Dynamic Vapor Sorption Intrinsic manufacture by SMS's (Surface Measurement Systems Ltd.). Typical Parameters for DVS test were listed below.
Gas and flow rate: N2, 200 mL/min
RH range: 0% RH to 95% RH
Hygroscopicity of 10 mg Form α of the present invention was tested using dynamic vapor sorption (DVS).
About hygroscopicity characterization description and definition of hygroscopicity (Chinese Pharmacopoeia 2010 edition appendix XIXJ Drug hygroscopic test guidelines, test at 25° C.±1, 80% Relative Humidity) • deliquescent: sufficient water is absorbed to form a liquid; • very hygroscopic: increase in mass is equal to or greater than 15 percent; • hygroscopic: increase in mass is less than 15 percent and equal to or greater than 2 percent; • slightly hygroscopic: increase in mass is less than 2 percent and equal to or greater than 0.2 percent; • no or almost no hygroscopic: increase in mass is less than 0.2%.

[3] = cited from earlier work

SMILES: C[C@H](Nc1ncnc2[nH]cnc12)c1cc2cccc(Cl)c2c(=O)n1-c1ccccc1 [Form A, (S)-3-(1-(9H-purin-6-ylamino)ethyl)-8-chloro-2-phenylisoquinolin-1(2H)-one]
- Form conversion on stirring ([1]; at 5° C., tetrahydrofuran, 24 h): converted to Form α

SMILES: C[C@H](Nc1ncnc2[nH]cnc12)c1cc2cccc(Cl)c2c(=O)n1-c1ccccc1 [Form α, (S)-3-(1-(9H-purin-6-ylamino)ethyl)-8-chloro-2-phenylisoquinolin-1(2H)-one]
- Stability relative to anhydrous Form A in CN103648499A ([1]; conclusion from stirring the mixture at 5° C.): more thermodynamic stable than Form A in CN103648499A; also recorded: more stable than anhydrous Form A in CN103648499A
- Hygroscopicity according to hygroscopic test guidelines ([2]; Chinese Pharmacopoeia 2010 definition, 80% Relative Humidity): slightly hygroscopic (increase in mass is less than 2 percent and equal to or greater than 0.2 percent)
- Weight gain under 80% RH ([2]; listed as Crystalline Form α of compound of Formula (I)): 0.67%
- Weight gain under 80% RH ([2]; listed as crystalline Form α): 0.67%

SMILES: C[C@H](Nc1ncnc2[nH]cnc12)c1cc2cccc(Cl)c2c(=O)n1-c1ccccc1 [Form C, (S)-3-(1-(9H-purin-6-ylamino)ethyl)-8-chloro-2-phenylisoquinolin-1(2H)-one]
- Crystallinity after grinding [3]: decrease or turns into amorphous
